Reference: ChEMBL document CHEMBL1144784, “A novel series of potent and selective ketone histone deacetylase inhibitors with antitumor activity in vivo” (J Med Chem, 2008)

Key:
[1] = target: Histone deacetylase 2 (Homo sapiens, UniProt Q92769)
[2] = target: Histone deacetylase 3 (Homo sapiens, UniProt O15379)
[3] = target: T1, Histone deacetylase 4 (Homo sapiens, UniProt P56524); experiment: Inhibition of HDAC4 expressed in Escherichia coli
Target sequence in this assay (P56524 whole entry): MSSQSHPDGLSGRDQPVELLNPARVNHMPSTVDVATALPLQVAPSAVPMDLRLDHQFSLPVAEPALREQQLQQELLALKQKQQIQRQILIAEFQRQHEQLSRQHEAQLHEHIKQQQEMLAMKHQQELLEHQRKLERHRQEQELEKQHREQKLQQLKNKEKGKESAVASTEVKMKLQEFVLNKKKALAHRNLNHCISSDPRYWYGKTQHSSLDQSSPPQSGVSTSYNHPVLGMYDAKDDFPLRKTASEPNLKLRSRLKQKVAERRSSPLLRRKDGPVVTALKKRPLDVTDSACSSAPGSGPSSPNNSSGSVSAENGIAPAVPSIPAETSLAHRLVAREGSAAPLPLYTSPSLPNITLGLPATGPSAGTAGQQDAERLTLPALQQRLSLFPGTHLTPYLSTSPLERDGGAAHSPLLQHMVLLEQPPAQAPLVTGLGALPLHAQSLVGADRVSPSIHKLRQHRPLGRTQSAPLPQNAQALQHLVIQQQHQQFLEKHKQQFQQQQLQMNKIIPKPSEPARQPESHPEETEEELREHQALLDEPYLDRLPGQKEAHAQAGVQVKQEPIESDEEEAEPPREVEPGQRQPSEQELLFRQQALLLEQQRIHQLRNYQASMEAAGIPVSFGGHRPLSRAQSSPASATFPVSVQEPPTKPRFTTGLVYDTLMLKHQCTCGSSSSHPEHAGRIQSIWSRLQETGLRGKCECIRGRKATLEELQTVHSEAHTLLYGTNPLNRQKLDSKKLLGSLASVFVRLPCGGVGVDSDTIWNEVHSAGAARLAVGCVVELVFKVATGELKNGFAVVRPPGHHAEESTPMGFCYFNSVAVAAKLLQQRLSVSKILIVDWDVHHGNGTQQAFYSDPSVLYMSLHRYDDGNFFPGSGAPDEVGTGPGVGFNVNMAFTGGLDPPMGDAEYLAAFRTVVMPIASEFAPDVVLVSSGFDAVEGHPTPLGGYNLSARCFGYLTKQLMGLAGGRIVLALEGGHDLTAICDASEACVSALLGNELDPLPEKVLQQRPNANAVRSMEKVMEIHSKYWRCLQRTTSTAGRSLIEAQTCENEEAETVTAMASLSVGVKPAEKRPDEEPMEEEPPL

[4] = target: T1, Histone deacetylase 4; experiment: Inhibition of HDAC4 gain-of-function phenotype expressed in Escherichia coli
Target sequence in this assay (P56524 whole entry, looked up): as the sequence (P56524 whole entry) above

[5] = target: Histone deacetylase 5 (Homo sapiens, UniProt Q9UQL6); experiment: Inhibition of HDAC5 expressed in Escherichia coli
Sequence of Histone deacetylase 5 (Q9UQL6 whole entry): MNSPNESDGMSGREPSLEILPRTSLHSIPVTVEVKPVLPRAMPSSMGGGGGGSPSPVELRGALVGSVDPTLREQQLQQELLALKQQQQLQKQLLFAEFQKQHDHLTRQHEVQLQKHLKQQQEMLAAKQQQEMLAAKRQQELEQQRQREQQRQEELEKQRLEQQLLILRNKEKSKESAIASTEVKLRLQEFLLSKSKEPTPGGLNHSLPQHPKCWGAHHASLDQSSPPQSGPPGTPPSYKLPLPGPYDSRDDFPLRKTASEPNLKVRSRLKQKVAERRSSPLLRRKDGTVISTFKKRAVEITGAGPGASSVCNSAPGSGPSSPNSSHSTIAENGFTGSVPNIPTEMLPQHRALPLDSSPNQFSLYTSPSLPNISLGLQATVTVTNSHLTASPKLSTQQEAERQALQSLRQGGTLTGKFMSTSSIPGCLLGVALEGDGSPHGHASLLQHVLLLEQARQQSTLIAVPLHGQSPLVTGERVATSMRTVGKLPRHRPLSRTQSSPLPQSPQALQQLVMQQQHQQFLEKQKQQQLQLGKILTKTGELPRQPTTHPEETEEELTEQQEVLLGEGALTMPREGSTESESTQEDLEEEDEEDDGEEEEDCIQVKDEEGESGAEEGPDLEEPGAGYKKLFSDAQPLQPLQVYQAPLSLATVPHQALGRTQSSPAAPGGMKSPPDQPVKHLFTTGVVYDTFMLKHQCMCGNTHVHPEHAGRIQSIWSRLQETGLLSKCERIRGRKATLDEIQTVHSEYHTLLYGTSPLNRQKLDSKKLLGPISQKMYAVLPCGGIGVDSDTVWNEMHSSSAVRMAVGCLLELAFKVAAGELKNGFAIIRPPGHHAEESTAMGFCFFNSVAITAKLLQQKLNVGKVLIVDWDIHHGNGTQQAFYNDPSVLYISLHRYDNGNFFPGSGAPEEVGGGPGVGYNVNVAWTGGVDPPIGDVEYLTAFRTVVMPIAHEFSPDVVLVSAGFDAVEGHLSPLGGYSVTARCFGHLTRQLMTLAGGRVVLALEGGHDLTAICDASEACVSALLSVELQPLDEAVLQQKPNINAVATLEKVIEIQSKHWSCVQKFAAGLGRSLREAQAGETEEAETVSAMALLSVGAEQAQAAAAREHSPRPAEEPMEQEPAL

[6] = target: T2, Histone deacetylase 7 (Homo sapiens, UniProt Q8WUI4); experiment: Inhibition of HDAC7 expressed in Escherichia coli
T2 sequence (Q8WUI4 whole entry): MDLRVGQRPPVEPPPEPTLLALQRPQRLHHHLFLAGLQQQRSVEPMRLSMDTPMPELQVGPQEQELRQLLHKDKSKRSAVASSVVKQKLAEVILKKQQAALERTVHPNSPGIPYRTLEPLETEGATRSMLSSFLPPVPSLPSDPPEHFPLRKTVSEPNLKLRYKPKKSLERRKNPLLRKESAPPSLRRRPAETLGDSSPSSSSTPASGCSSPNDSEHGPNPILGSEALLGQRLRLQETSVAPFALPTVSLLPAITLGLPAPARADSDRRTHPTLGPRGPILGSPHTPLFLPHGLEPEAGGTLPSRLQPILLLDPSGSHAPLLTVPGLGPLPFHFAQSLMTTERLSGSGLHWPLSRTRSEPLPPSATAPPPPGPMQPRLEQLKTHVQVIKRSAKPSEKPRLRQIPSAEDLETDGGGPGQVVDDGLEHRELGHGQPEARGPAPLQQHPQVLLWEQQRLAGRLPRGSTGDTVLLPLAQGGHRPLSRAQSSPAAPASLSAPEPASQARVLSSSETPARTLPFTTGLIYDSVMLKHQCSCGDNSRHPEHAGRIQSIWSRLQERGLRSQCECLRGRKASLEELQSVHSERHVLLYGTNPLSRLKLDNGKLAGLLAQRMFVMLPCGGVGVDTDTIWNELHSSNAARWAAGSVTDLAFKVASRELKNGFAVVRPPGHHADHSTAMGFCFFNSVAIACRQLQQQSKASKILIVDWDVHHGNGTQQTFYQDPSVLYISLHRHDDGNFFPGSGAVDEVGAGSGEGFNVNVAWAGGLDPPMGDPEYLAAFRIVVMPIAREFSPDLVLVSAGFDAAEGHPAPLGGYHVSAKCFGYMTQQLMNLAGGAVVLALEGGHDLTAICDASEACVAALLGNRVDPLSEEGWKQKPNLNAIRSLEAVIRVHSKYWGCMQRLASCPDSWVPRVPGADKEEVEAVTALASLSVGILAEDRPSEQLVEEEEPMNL

[7] = target: T3, Protein deacetylase HDAC6 (Homo sapiens) (UniProt Q9UBN7); experiment: Inhibition of HDAC6 at 10 uM
T3 sequence (whole entry): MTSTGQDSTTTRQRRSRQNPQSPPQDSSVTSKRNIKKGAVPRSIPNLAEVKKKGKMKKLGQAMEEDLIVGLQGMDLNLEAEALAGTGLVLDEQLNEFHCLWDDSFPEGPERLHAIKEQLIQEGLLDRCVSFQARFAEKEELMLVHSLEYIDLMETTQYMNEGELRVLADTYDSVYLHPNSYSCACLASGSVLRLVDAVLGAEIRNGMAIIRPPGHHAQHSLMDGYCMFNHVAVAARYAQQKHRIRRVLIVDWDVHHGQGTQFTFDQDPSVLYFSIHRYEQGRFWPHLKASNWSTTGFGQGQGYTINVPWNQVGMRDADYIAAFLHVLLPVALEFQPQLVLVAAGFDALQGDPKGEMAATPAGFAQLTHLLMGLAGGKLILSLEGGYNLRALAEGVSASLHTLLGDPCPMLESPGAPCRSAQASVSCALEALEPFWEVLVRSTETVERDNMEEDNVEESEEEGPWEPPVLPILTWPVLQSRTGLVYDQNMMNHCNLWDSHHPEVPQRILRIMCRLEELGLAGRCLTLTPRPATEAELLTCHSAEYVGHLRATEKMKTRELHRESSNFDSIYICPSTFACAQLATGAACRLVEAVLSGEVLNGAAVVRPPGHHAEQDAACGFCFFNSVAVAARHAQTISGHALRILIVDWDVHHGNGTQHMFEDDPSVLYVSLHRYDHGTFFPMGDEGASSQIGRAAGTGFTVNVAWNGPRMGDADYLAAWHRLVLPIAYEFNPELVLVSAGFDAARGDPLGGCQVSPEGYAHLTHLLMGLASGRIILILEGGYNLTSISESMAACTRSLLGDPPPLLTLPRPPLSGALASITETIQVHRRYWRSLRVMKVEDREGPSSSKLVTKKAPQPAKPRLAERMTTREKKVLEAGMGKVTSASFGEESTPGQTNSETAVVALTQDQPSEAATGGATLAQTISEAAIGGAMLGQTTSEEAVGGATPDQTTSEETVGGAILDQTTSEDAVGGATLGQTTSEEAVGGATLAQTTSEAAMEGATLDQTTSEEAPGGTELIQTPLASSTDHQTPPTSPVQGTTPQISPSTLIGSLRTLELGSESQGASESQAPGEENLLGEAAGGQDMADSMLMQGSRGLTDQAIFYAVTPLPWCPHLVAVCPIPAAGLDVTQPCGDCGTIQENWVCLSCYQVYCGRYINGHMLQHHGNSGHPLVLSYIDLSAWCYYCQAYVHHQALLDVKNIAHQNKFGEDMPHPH

[8] = test system: HeLa; experiment: Antiproliferative activity against human HeLa cells by CellTiter-Blue cell viability assay; type: functional, cell-based
[9] = test system: HCT-116; experiment: Antiproliferative activity against human HCT116 cells by CellTiter-Blue cell viability assay; type: functional, cell-based
[10] = test system: A549; experiment: Antiproliferative activity against human A549 cells by CellTiter-Blue cell viability assay; type: functional, cell-based
[11] = test system: G-401; experiment: Antiproliferative activity against human G401 cells by CellTiter-Blue cell viability assay; type: functional, cell-based
[12] = test system: A2780; experiment: Antiproliferative activity against human A2780 cells by CellTiter-Blue cell viability assay; type: functional, cell-based
[13] = Antiproliferative activity against human renal epithelial cells by CellTiter-Blue cell viability assay; type: ADME, cell-based
[14] = target: Histone deacetylase 1 (Homo sapiens, UniProt Q13547)
Sequence of Histone deacetylase 1 (Q13547 whole entry): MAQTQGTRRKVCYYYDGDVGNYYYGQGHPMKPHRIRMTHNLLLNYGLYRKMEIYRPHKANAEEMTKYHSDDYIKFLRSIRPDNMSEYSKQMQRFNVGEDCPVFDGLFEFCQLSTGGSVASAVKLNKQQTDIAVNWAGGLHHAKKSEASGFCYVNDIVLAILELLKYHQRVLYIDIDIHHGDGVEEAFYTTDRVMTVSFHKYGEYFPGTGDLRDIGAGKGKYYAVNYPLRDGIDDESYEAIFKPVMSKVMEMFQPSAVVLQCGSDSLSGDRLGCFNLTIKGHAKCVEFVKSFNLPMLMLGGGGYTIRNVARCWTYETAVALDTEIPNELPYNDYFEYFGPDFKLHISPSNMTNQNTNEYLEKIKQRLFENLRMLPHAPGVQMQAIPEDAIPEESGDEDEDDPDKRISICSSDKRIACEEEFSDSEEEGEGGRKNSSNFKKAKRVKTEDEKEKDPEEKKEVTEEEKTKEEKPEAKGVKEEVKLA

[15] = target: T4, Histone deacetylase 8 (Homo sapiens) (UniProt Q9BY41); settings: 10 uM
T4 sequence (whole entry): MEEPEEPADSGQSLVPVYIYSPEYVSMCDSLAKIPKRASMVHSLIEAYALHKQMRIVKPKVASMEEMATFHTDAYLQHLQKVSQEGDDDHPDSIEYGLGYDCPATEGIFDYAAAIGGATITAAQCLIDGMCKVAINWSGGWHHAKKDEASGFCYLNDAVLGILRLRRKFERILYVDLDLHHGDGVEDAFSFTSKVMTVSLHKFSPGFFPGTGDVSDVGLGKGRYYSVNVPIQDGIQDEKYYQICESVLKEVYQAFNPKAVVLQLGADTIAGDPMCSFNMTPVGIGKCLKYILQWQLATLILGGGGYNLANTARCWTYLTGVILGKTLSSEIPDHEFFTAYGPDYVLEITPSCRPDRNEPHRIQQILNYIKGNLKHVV
Description: Inhibition of HDAC8 expressed in Escherichia coli at 10 uM

[16] = test system: HCT-116; experiment: Antitumor activity against human HCT116 cells xenografted BALB/c mouse assessed as tumor growth inhibition at 60 mg/kg, ip administered for 5 days per week for 2.5 weeks; settings: HCT-116, ip, read-out: TGI
[17] = test system: Mus musculus; experiment: Toxicity against human HCT116 cells xenografted BALB/c mouse assessed as body weight loss at 25 mg/kg, ip administered 5 days per week for 2.5 weeks; type: organism-based, HCT-116; set-up: dose 25 mg/kg, route intraperitoneal; settings: in vivo
[18] = Toxicity in ip dosed BALB/c mouse assessed as maximum tolerated dose; type: organism-based; settings: in vivo
[19] = test system: Mus musculus; experiment: Toxicity against human HCT116 cells xenografted BALB/c mouse assessed as body weight loss at 100 mg/kg, ip administered 5 days per week for 2.5 weeks; type: organism-based, HCT-116; set-up: dose 100 mg/kg, route intraperitoneal; settings: in vivo
[20] = test system: Mus musculus; experiment: Toxicity against human HCT116 cells xenografted BALB/c mouse assessed as body weight loss at 60 mg/kg, ip administered 5 days per week for 2.5 weeks; type: organism-based, HCT-116; set-up: dose 60 mg/kg, route intraperitoneal; settings: in vivo
[21] = target: T5, Histone deacetylase 8 (Homo sapiens, UniProt Q9BY41); experiment: Inhibition of HDAC8 expressed in Escherichia coli
T5 sequence (Q9BY41 whole entry): T4 sequence (whole entry)

[22] = test system: Plasma; experiment: Stability in human plasma at 5 uM after 4 hrs; type: ADME, cell-free
[23] = test system: Plasma; experiment: Stability in dog plasma at 5 uM after 4 hrs; type: ADME, cell-free, Canis lupus familiaris
[24] = test system: Plasma; experiment: Stability in rat plasma at 5 uM after 4 hrs; type: ADME, cell-free
[25] = test system: Plasma; experiment: Stability in mouse plasma at 5 uM after 4 hrs; type: ADME, cell-free
[26] = Intrinsic clearance in human liver microsomes; type: ADME, Microsome
[27] = Intrinsic clearance in Sprague-Dawley rat liver microsomes; type: ADME, Microsome
[28] = Clearance in Sprague-Dawley rat plasma; type: ADME, organism-based
[29] = Terminal half life in Sprague-Dawley rat; type: ADME, organism-based; settings: in vivo
[30] = Oral bioavailability in Sprague-Dawley rat; type: ADME, organism-based; settings: in vivo
[31] = target: T6, Protein deacetylase HDAC6 (Homo sapiens, UniProt Q9UBN7)
T6 sequence (Q9UBN7 whole entry): T3 sequence (whole entry)

[32] = test system: Plasma; experiment: Stability in human plasma at 5 uM after 24 hrs; type: ADME, cell-free
[33] = test system: Plasma; experiment: Stability in dog plasma at 5 uM after 24 hrs; type: ADME, cell-free, Canis lupus familiaris
[34] = test system: Plasma; experiment: Stability in rat plasma at 5 uM after 24 hrs; type: ADME, cell-free
[35] = test system: Plasma; experiment: Stability in mouse plasma at 5 uM after 24 hrs; type: ADME, cell-free
[36] = AUC (0 to infinity) in Sprague-Dawley rat at 3 mg/kg, iv; type: ADME, organism-based; set-up: dose 3 mg/kg, route intravenous, time infinity; settings: plasma
[37] = Clearance in Sprague-Dawley rat plasma at 3 mg/kg, iv; type: ADME, organism-based; set-up: dose 3 mg/kg, route intravenous

Sequence of Histone deacetylase 2 (Q92769 whole entry): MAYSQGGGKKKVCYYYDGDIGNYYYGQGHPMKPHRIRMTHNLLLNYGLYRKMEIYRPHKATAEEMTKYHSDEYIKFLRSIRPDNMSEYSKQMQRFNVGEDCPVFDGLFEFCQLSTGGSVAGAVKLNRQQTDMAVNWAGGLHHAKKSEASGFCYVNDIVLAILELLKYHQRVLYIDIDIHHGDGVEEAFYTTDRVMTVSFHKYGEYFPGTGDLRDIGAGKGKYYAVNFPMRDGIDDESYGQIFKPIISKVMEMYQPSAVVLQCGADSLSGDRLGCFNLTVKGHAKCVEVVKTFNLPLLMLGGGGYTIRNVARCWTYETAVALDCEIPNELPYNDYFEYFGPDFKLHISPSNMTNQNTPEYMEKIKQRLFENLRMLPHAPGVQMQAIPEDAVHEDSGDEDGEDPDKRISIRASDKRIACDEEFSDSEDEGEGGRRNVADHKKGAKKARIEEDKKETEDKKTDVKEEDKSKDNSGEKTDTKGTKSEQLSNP
Sequence of Histone deacetylase 3 (O15379 whole entry): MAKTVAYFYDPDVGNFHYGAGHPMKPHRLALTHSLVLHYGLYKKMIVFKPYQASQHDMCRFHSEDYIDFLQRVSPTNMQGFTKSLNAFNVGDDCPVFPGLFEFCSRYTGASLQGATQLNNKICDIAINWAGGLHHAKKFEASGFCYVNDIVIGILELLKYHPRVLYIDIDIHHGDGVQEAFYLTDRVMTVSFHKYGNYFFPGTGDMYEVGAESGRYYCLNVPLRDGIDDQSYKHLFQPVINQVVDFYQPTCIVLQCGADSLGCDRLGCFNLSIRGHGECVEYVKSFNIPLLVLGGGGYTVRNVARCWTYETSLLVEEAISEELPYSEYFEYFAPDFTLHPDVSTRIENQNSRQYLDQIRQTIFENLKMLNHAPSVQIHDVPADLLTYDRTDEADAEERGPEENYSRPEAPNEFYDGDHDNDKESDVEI

Row | Structure (SMILES) | IC50 [1] [nM] | IC50 [2] [nM] | IC50 [3] [nM] | IC50 [4] [nM] | IC50 [5] [nM] | IC50 [6] [nM] | IC50 [8] [nM] | IC50 [9] [nM] | IC50 [10] [nM] | IC50 [11] [nM] | IC50 [12] [nM] | IC50 [13] [nM] | IC50 [14] [nM] | MTD [18] [mg/kg] | IC50 [21] [nM] | Stability [22] | Stability [23] | Stability [24] | Stability [25] | IC50 [31] [nM] | also measured
1 | CCC(=O)CCCCC[C@H](NC(=O)Cc1c(C)[nH]c2ccc(OC)cc12)c1ncc(-c2ccccc2)[nH]1 | 59 | 48 | > 10000 | > 10000 | > 10000 | > 10000 | 340 | 330 | 5200 | 250 | 420 | 5300 | 26 | – | – | – | – | – | – | – | inhibition [7]: 40%; inhibition [15]: 40%
2 | Nc1ccccc1NC(=O)c1ccc(CNC(=O)OCc2cccnc2)cc1 [ENTINOSTAT] | – | – | – | – | – | – | – | 700 | 1200 | 1300 | 3000 | > 20000 | – | 25 | – | – | – | – | – | – | inhibition in vivo at 60 mg/kg [16]: 69%; Activity [17]: < 10%
3 | O=C(CCCCCCC(=O)Nc1ccccc1)NO [VORINOSTAT] | – | – | – | – | – | – | – | – | – | – | – | – | – | – | – | – | – | – | – | – | Activity [19]: < 10%
4 | COc1ccc2[nH]c(C)c(CC(=O)N[C@@H](CCCCCC(C)=O)c3ncc(-c4ccccc4)[nH]3)c2c1 | 110 | 120 | > 10000 | 6000 | > 10000 | > 10000 | 880 | 500 | 6300 | 960 | 2200 | 16000 | 59 | 60 | > 5000 | Stable | Stable | Stable | Stable | 340 | Activity [20]: < 10%; microsomal CLint [26]: > 400 µL/min/mg; microsomal CLint [27]: > 400 µL/min/mg; clearance [28]: 80 mL/min/kg; half-life [29]: 1.3 h; bioavailability [30]: 15%
5 | CC(=O)CCCCC[C@H](NC(=O)CCN1CCCCC1)C(=O)Nc1cnc2ccccc2c1.Cl.Cl | – | – | – | – | – | – | 2000 | – | – | – | – | – | 140 | – | – | – | – | – | – | – | Stability [32]: Stable; Stability [33]: Stable; Activity [34]: Not Active; Activity [35]: Not Active; AUC(0-inf) [36]: 0.05 µM·h; clearance [37]: > 150 mL/min/kg
6 | COc1ccc2[nH]c(C)c(CC(=O)N[C@@H](CCCCCC(C)=O)c3nc4ccc(Cl)cc4[nH]3)c2c1 | 880 | 1000 | > 10000 | 4200 | > 10000 | > 10000 | 3100 | 4200 | 8200 | 7500 | 11000 | 41000 | 670 | – | > 10000 | Stable | Stable | Stable | Stable | 970 | –
